Test results as given in US12173088B2, “Anti-microbial peptides” (priority 2018, dated 2024).
Converted amounts (≈) assume the structure as drawn. “Also recorded” adds a separate entry of the source. Like-named read-outs stand apart in the source and are kept apart here. Ends that are not written are not given here.

How the values were obtained:
[1] = tested on: A. baumannii B26-16; test: microbe, parasite or virus in culture; type: cell-based, Acinetobacter baumannii; settings: Acinetobacter baumannii, B2616; Table 14; read-out: MIC A. baumannii B26-16
Procedure: (§1) The bacterial strains used include the Gram-positive bacteria methicillin-resistant Staphylococcus aureus USA300, Enterococcus faecium V286-17 (VRE), S. aureus M838-17 (MRSA) and Gram-negative bacteria E. coli E423-17, E416-7 (ampC), P. aeruginosa E411-17, PA01, K. pneumoniae E406-17, ATCC13883, and A. baumannii B26-16. Bacteria were cultivated in tryptic soy broth (TSB) from BD Bioscience.
(§2) The antibacterial activity of peptides was evaluated using a standard broth microdilution protocol with minor modifications (Mishra, et al. (2017) Acta Biomater., 49:316-328). In brief, logarithmic phase bacterial cultures (i.e., optical density at 600 nm≈0.5) were diluted to 0.001 OD and aliquoted 90 μL per well into a 96-well polystyrene microplate. Added 10 μL peptides per well with various concentrations, plates were incubated at 37° C., overnight. Post incubation the plates are read at 630 nm using a ChroMate® Microplate Reader (GMI). […] To study the influence of medium conditions on the antimicrobial activity of peptides against S. aureus USA300 at different pHs (6.8, 7.2, and 8.0), 150 mM sodium chloride (NaCl), 5-10% of human serum, mouse plasma, and peritoneal fluid were included into the assays.

[2] = tested on: S. aureus USA300; test: microbe, parasite or virus in culture; type: cell-based, Staphylococcus aureus; settings: Staphylococcus aureus, MRSA / USA300; Table 14; read-out: MIC S. aureus USA300 (MRSA)
Outline: (§3)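 Broth microdilution: log-phase cultures in tryptic soy broth diluted to OD600 0.001, exposed to two-fold diluted peptides at 37° C overnight, growth read at 630 nm. Medium effects on S. aureus USA300 tested with up to 200 mM NaCl, 2 mM CaCl2, 5-10% human serum, mouse plasma, fluids or tissue homogenate supernatants.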

[3] = tested on: S. aureus M838-17 (MRSA); test: microbe, parasite or virus in culture; type: cell-based, Staphylococcus aureus; settings: Staphylococcus aureus, MRSA; Table 7; by weight; read-out: MIC S. aureus M838-17 (MRSA)
Outline: as §3

[4] = tested on: S. aureus USA300; test: Propidium iodide membrane permeation; type: cell-based, Staphylococcus aureus
Procedure: The membrane permeation experiment was performed as described with minor modifications (Wang, et al. (2005) J. Biol. Chem., 280:5803-5811). Serially diluted 10× peptides (10 μL each well) were created in 96-well microtiter plates. Propidium iodide (2 μL) at a fixed concentration of 20 μM were added to each well followed by 88 μL of the S. aureus USA300 culture (a final OD600˜0.1 in TSB media). The plate was incubated at 37° C. with continuous shaking at 100 rpm in a FLUOstar® Omega (BMG LABTECH, Cary, NC) microplate reader. The fluorescence from the plate was read every 5 minutes for a total duration of 2 hours with an excitation and emission wavelengths of 584 nm and 620 nm, respectively. Plots were made using average values of duplicated experiments with MARS software.
The experiment was performed as described previously with minor modifications (Mishra, et al. (2017) Acta Biomater., 49:316-328). Serially diluted 10× peptides (10 μL each well) were created in 96-well microtiter plates. Propidium iodide (2 μL) at a fixed concentration of 20 μM were added to each well followed by 88 μL of the S. aureus USA300 culture (a final OD600˜0.1 in TSB media or PBS). The plate was incubated at 37° C. with continuous shaking at 100 rpm in a FLUOstar® Omega (BMG LABTECH) microplate reader. The samples fluorescence was read at every 5 minutes for 24 cycles with an excitation and emission wavelengths of 584 nm and 620 nm, respectively. Plots generated using average values from the experiments using GraphPad Prism.

[5] = tested on: E. coli E423-17; test: microbe, parasite or virus in culture; type: cell-based, Escherichia coli; settings: Escherichia coli, E42317; Table 14; read-out: MIC E. coli E423-17
From the text: (§4) The bacterial strains used include the Gram-positive strains Staphylococcus aureus USA300 LAC, S. epidermidis 1457, and Bacillus subtilis 168, as well as the Gram-negative isolates Escherichia coli K12 and Acinetobacter baumannii B2367-12. Additional, drug resistance strains include Gram-positive Enterococcus faecium V286-17 (VRE) and S. aureus M838-17 (MRSA) and Gram-negative E. coli E423-17, E. coli E416-17 (ampC), and P. aeruginosa E411-17. Bacteria were cultivated in tryptic soy broth (TSB) (BD Bioscience, MD).
(§5) The antibacterial activity of peptides was evaluated using a standard broth microdilution protocol with minor modifications as described (Mishra, et al. (2012) J. Am. Chem. Soc., 134:12426-12429). In brief, logarithmic phase bacterial cultures (i.e., optical density at 600 nm≈0.5) were diluted to OD600 0.001 and partitioned into a 96-well polystyrene microplate at 90 μL per well. After treatment with 10 μL of peptide solutions two fold diluted to various concentrations, microplates were incubated at 37° C. overnight and read on a ChroMate® 4300 Microplate Reader at 630 nm (GMI, Ramsey, MN). […] To study the influence of medium conditions on the antimicrobial activity of peptides against S. aureus USA300, up to 200 mM sodium chloride (NaCl), 2 mM of calcium chloride, 5-10% of human serum, mouse plasma, fluid, or supernatants of tissue homogenates were included into the assays.
as §1, §2

[6] = tested on: E. faecium V286-17 (VRE); test: microbe, parasite or virus in culture; type: cell-based, Enterococcus faecium; settings: Enterococcus faecium, VRE, read-out: MIC E. faecium V286-17 (VRE)
From the text: as §4, §5, §1, §2

[7] = tested on: K. pneumoniae E406-17; test: microbe, parasite or virus in culture; type: cell-based, Klebsiella pneumoniae; settings: Klebsiella pneumoniae, E40617; Table 14; read-out: MIC K. pneumoniae E406-17
Procedure: as §5, §1, §2

[8] = tested on: P. aeruginosa E411-17; test: microbe, parasite or virus in culture; type: cell-based, Pseudomonas aeruginosa; settings: Pseudomonas aeruginosa, E41117; Table 14; read-out: MIC P. aeruginosa E411-17
From the text: as §4, §5, §1, §2

[9] = tested on: S. aureus USA300; type: in vivo, Staphylococcus aureus; settings: different tissues; single i.p. injection; positive control
Procedure: Female C57BL/6 mice (6 weeks old) were purchased from Charles River. After environment adaptation, mice were induced neutropenic by administering two doses of cyclophosphamide on day 1 (150 mg/kg) and Day 4 (100 mg/kg). This cyclophosphamide administration was skipped for experiments using non-neutropenic mice (i.e., normal mice). On day 5, mice were infected with S. aureus USA300 LAC (˜2×10^6 CFU per mouse) via intraperitoneal injection (i.p.). For the treatment groups, mice were i.p. treated 2 hours post infection with peptides at a single dose of 5 mg/kg. Both positive and negative controls were included. At the end of the experiments, all animals were sacrificed according to institutional guidelines. Organs, including spleen, lung, kidney, and liver, were harvested, weighed, placed in sterile PBS and stored on ice. Harvested animal organs were subsequently homogenized using homogenizer (Omni, Kennesaw, GA). Proper dilutions, especially for untreated control groups, were made to get countable colonies. Blood agar plates were then incubated overnight at 37° C. The bacteria grown on plates were enumerated and plotted using the Graph pad Prism software.
Female C57BL/6 or Balb/c mice (6 weeks old) were purchased from Charles River. The mice were induced neutropenic by administering two doses of cyclophosphamide on day 1 (150 mg/kg) and Day 4 (100 mg/kg). On day 5, mice were infected with S. aureus USA300 (˜2×10^6 CFU per mouse) or K. pneumoniae E406-17 (˜5×10^5 CFU per mouse) via intraperitoneal injection (i.p.). For the treatment groups, mice were i.p. or intravenous (i.v.) treated 2 hours post infection with peptides at a single dose of 5, 10, or 15 mg/kg. Both positive and negative controls are used. At the end of the experiments, all animals were sacrificed according to institutional guidelines. […] The CFU of each mouse was plotted as an individual point and error bars represent the deviation within the experimental group. * p<0.05 ** p<0.01, ***p<0.001 and NS represents no significance (determined by Mann-Whitney test).

[10] = literature; cited from earlier work

MIC [1] [µM] | MIC [2] [µM] | MIC [3] [µM] | MIC [5] [µM] | MIC ([6]; Table 7) [µM] | MIC ([6]; Table 14) [µM] | MIC [7] [µM] | MIC [8] [µM] | Compound | Propidium iodide membrane permeation [4] | Decrease in bacterial burden [9] | In vivo outcome [10]
> 8 | 0.25 (≈ 0.174 µg/mL) | 1.56 (≈ 1.09 µg/mL) | > 8 | 12.5 (≈ 8.72 µg/mL) | > 8 | > 8 | > 8 | CO[C@H]1/C=C/O[C@@]2(C)Oc3c(C)c(O)c4c(O)c(cc(O)c4c3C2=O)NC(=O)/C(C)=C\C=C\[C@H](C)[C@H](O)[C@@H](C)[C@@H](O)[C@@H](C)[C@H](OC(C)=O)[C@@H]1C [Rifamycin, reference compound] | failed to permeate | – | –
> 8 | 4 (≈ 6.48 µg/mL) | 0.78 (≈ 1.26 µg/mL) | > 8 | 3.1 (≈ 5.02 µg/mL) | 4 (≈ 6.48 µg/mL) | > 8 | > 8 | CCCCCCCCCC(=O)N[C@@H](Cc1c[nH]c2ccccc12)C(=O)N[C@H](CC(N)=O)C(=O)N[C@@H](CC(=O)O)C(=O)N[C@@H]1C(=O)NCC(=O)N[C@@H](CCCN)C(=O)N[C@@H](CC(=O)O)C(=O)N[C@H](C)C(=O)N[C@@H](CC(=O)O)C(=O)NCC(=O)N[C@H](CO)C(=O)N[C@@H]([C@H](C)CC(=O)O)C(=O)N[C@@H](CC(=O)c2ccccc2N)C(=O)O[C@@H]1C [Daptomycin] | fluorescence increase; also recorded: permeated bacterial membranes | 1-4 logs | –
– | – | – | – | – | – | – | – | ALWMTLLKKVLKAAAK (not fully specified (C-terminus)) [DS4(1-16)] | – | – | failure
– | – | – | – | – | – | – | – | RPDKPRPYLPRPRPPRPVR (not fully specified (C-terminus)) [Peptide A3-APO] | – | – | showed in vivo efficacy
– | – | – | – | – | – | – | – | GIGKFLKKAKKFGKAFVKILKK (not fully specified (C-terminus)) [MSI-78] | – | – | failure
